Results reported in patent publication US8664406B2, “Fluorescent probe compounds, preparation method and use thereof” (Dalian University of Technology, priority 2009, dated 2014).

Legend:
[1] = probe 5 μM, ethanol/water=1/1 v/v; for fluorescence and UV-Vis absorption enhancement induced by Hg^2+: Hg^2+ 15 equivalence; for selectivity to Hg^2+: metal ions 50 equivalence (Hg^2+ 15 equivalence), without the interference from Na^+, K^+, Ca^2+, Mg^2+, Cu^2+ and so on
Experimental: The synthesized compound RHg1 was adopted to test the selectivity to Hg^2+. RHg1 (5 μM) was added into ethanol aqueous solution (ethanol/water=1/1, v/v) containing metal ion (50 equivalence, except that Hg^2+ is 15 equivalence), and then the fluorescence spectrum was tested with excitation wavelength of 510 nm and emission wavelength of 580 nm, the result is shown in FIG. 1.
The synthesized compound RHg2 was adopted to test the selectivity to Hg^2+. RHg2 (5 μM) was added into ethanol aqueous solution (ethanol/water=1/1, v/v) containing metal ion (50 equivalence, except that Hg^2+ is 15 equivalence), and then the fluorescence spectrum was tested, the result is shown in FIG. 10.
The synthesized compound RHg3 was adopted to test the selectivity to Hg^2+. RHg3 (5 μM) was added into ethanol aqueous solution (ethanol/water=1/1, v/v) containing metal ion (50 equivalence, except that Hg^2+ is 15 equivalence), and then the fluorescence spectrum was tested, the result is shown in FIG. 11.
The synthesized compound RHg4 was adopted to test the selectivity to Hg^2+. RHg4 (5 μM) was added into ethanol aqueous solution (ethanol/water=1/1, v/v) containing metal ion (50 equivalence, except that Hg^2+ is 15 equivalence), and then the fluorescence spectrum was tested, the result is shown in FIG. 12.
The synthesized compound RHg5 was adopted to test the selectivity to Hg^2+. RHg5 (5 μM) was added into ethanol aqueous solution (ethanol/water=1/1, v/v) containing metal ion (50 equivalence, except that Hg^2+ is 15 equivalence), and then the fluorescence spectrum was tested, the result is shown in FIG. 13.
The synthesized compound RHg6 was adopted to test the selectivity to Hg^2+. RHg6 (5 μM) was added into ethanol aqueous solution (ethanol/water=1/1, v/v) containing metal ion (50 equivalence, except that Hg^2+ is 15 equivalence), and then the fluorescence spectrum was tested, the result is shown in FIG. 14.
The synthesized compound RHg7 was adopted to test the selectivity to Hg^2+. RHg7 (5 μM) was added into ethanol aqueous solution (ethanol/water=1/1, v/v) containing metal ion (50 equivalence, except that Hg^2+ is 15 equivalence), and then the fluorescence spectrum was tested, the result is shown in FIG. 15.
The synthesized compound RHg8 was adopted to test the selectivity to Hg^2+. RHg8 (5 μM) was added into ethanol aqueous solution (ethanol/water=1/1, v/v) containing metal ion (50 equivalence, except that Hg^2+ is 15 equivalence), and then the fluorescence spectrum was tested, the result is shown in FIG. 16.
The synthesized compound RHg9 was adopted to test the selectivity to Hg^2+. RHg9 (5 μM) was added into ethanol aqueous solution (ethanol/water=1/1, v/v) containing metal ion (50 equivalence, except that Hg^2+ is 15 equivalence), and then the fluorescence spectrum was tested, the result is shown in FIG. 17.
The synthesized compound RHg10 was adopted to test the selectivity to Hg^2+. RHg10 (5 μM) was added into ethanol aqueous solution (ethanol/water=1/1, v/v) containing metal ion (50 equivalence, except that Hg^2+ is 15 equivalence), and then the fluorescence spectrum was tested, the result is shown in FIG. 18.

[2] = RHg1 3 μM, L-cysteine 10 μM, Hg^2+ 1 μM
Experimental: The fluorescence of RHg1 (3 μM) was tested first, then the fluorescence of RHg1 after addition of L-cysteine (10 μM) or Hg^2+ (1 μM) was tested, and finally the fluorescence of the mixed solution containing RHg1, L-cysteine and Hg^2+ was tested. […] The instrument is Nikon eclipase TE 2000-5.

[3] = RHg1 1 μM, sea water, Hg^2+ 1 to 5 ppb
Experimental: The application of the fluorescence probe of the present invention in sea water is described below. Namely, the probe is dissolved in an organic solvent or an organic solvent/water to form a probe solution. Some amount of the probe solution is added into the sea water sample containing Hg^2+ and the mixture is reacted for 10 to 30 min, and then fluorescence is detected.
The instrument is fluorospectrophotometer, model: LS 55.

[4] = pH range 4.9 to 7.7, aqueous solution, ionic strength 0.1
Experimental: The pHs of RHg1 aqueous solution and RHg1/Hg^2+ aqueous solution (ionic strength of 0.1, respectively) were adjusted to about 4.9, after measurement of fluorescence signal, a base solution was added slowly to adjust pH to 7.7, and the corresponding fluorescence signal change was measure, the results is shown in FIG. 3. […] The instrument is fluorospectrophotometer, model: LS 55.

[5] = test system: Hela cells; details: 37° C., 30 min, RHg1 10 μM
Experimental: In order to investigate the ability of probe to track Hg^2+ in living cells, the following experiment is carried out. A neutral buffer containing the probe is added into cells, and then cells are incubated for 0.5 h in an incubator of 37° C. containing 5% CO2. The obtained cells are fully washed with the buffer or the culture medium and then imaged with fluorescent microscope to give a blank image. On the other hand, Hg(NO3)2 solution (final concentration is made to 10 μM) is added into the culture containing cells and the probe, and then cells are incubated for 0.5 h in an incubator of 37° C. containing 5% CO2. The obtained cells are washed with the culture medium and then imaged with fluorescent microscope to give an image showing intracellular distribution of Hg^2+, by which the information about the presence of Hg^2+ and regional distribution of Hg^2+ in cells is obtained.
The instrument is Nikon eclipase TE 2000-5.

Structure (SMILES)	fluorescence and UV-Vis absorption enhancement induced by Hg^2+ [1]	selectivity to Hg^2+ [1]	other results
Nc1ccc2c(c1)Oc1cc(N)ccc1C21c2ccccc2C(=O)N1/N=C/C=N/c1ccc(OCCOCCO)cc1 [RHg22]	large fluorescence and UV-Vis absorption enhancement	good selectivity	–
CCN(CC)c1ccc2c(c1)Oc1cc(N(CC)CC)ccc1C21c2ccccc2C(=O)N1/N=C/C=N/c1ccccc1C [RHg2]	large fluorescence and UV-Vis absorption enhancement	good selectivity	–
CCN(CC)c1cc2c(cc1C)C1(c3ccc(N)cc3O2)c2ccccc2C(=O)N1/N=C/C=N/c1ccc(C#N)cc1 (stereo not shown) [RHg8]	large fluorescence and UV-Vis absorption enhancement	good selectivity	–
CCN(CC)c1ccc2c(c1)Oc1cc(N(CC)CC)ccc1C21c2ccccc2C(=O)N1/N=C/C=N/c1ccccc1O [RHg1]	large fluorescence and UV-Vis absorption enhancement	good selectivity	effect of L-cysteine on Hg^2+ detection [2]: little effects; relationship between fluorescence intensity and Hg^2+ concentration [3]: good linear relationship; effect of pH change on fluorescence emission [4]: nearly not effected; fluorescence in living Hela cells without Hg^2+ [5]: very weak; fluorescence in living Hela cells with Hg^2+ added ([5]; Hg^2+ 10 μM): very strong
CCN(CC)c1cc2c(cc1C)C1(c3ccc(N)cc3O2)c2ccccc2C(=O)N1/N=C/C=N/c1ccc(C(C)=O)cc1 (stereo not shown) [RHg11]	large fluorescence and UV-Vis absorption enhancement	good selectivity	–
CCN(CC)c1ccc2c(c1)Oc1cc(N)ccc1C21c2ccccc2C(=O)N1/N=C/C=N/c1ccc(OC)cc1 (stereo not shown) [RHg19]	large fluorescence and UV-Vis absorption enhancement	good selectivity	–
Nc1ccc2c(c1)Oc1cc(N)ccc1C21c2ccccc2C(=O)N1/N=C/C=N/c1ccc(C(=O)O)cc1 [RHg23]	large fluorescence and UV-Vis absorption enhancement	good selectivity	–
Nc1ccc2c(c1)Oc1cc(N)ccc1C21c2ccccc2C(=O)N1/N=C/C=N/c1ccc(Nc2ccccc2)cc1 [RHg24]	large fluorescence and UV-Vis absorption enhancement	good selectivity	–
CCN(CC)c1ccc2c(c1)Oc1cc(N)ccc1C21c2ccccc2C(=O)N1/N=C/C=N/c1ccc(OCCOCCO)cc1 (stereo not shown) [RHg20]	large fluorescence and UV-Vis absorption enhancement	good selectivity	–
CCNc1cc2c(cc1C)C1(c3cc(C)c(NCC)cc3O2)c2ccccc2C(=O)N1/N=C/C=N/c1ccc(OC)cc1 [RHg13]	large fluorescence and UV-Vis absorption enhancement	good selectivity	–
CCN(CC)c1ccc2c(c1)Oc1cc(N)ccc1C21c2ccccc2C(=O)N1/N=C/C=N/c1ccc(Br)cc1 (stereo not shown) [RHg18]	large fluorescence and UV-Vis absorption enhancement	good selectivity	–
CCNc1cc2c(cc1C)C1(c3cc(C)c(NCC)cc3O2)c2ccccc2C(=O)N1/N=C/C=N/c1ccc(Nc2ccccc2)cc1 [RHg17]	large fluorescence and UV-Vis absorption enhancement	good selectivity	–
CCN(CC)c1cc2c(cc1C)C1(c3ccc(N)cc3O2)c2ccccc2C(=O)N1/N=C/C=N/c1ccccc1 (stereo not shown) [RHg7]	large fluorescence and UV-Vis absorption enhancement	good selectivity	–
CCN(CC)c1ccc2c(c1)Oc1cc(N(CC)CC)ccc1C21c2ccccc2C(=O)N1/N=C/C=N/c1ccccc1 [RHg3]	large fluorescence and UV-Vis absorption enhancement	good selectivity	–
CCNc1cc2c(cc1C)C1(c3cc(C)c(NCC)cc3O2)c2ccccc2C(=O)N1/N=C/C=N/c1ccc(C(=O)O)cc1 [RHg15]	large fluorescence and UV-Vis absorption enhancement	good selectivity	–
CCN(CC)c1cc2c(cc1C)C1(c3ccc(N)cc3O2)c2ccccc2C(=O)N1/N=C/C=N/c1ccc(NC(C)=O)cc1 (stereo not shown) [RHg9]	large fluorescence and UV-Vis absorption enhancement	good selectivity	–
Cc1c(/N=C/C=N/N2C(=O)c3ccccc3C23c2ccc(N)cc2Oc2cc(N)ccc23)cccc1C(F)(F)F [RHg25]	large fluorescence and UV-Vis absorption enhancement	good selectivity	–
CCN(CC)c1cc2c(cc1C)C1(c3ccc(N)cc3O2)c2ccccc2C(=O)N1/N=C/C=N/c1ccc(Nc2ccccc2)cc1 (stereo not shown) [RHg10]	large fluorescence and UV-Vis absorption enhancement	good selectivity	–
CCNc1cc2c(cc1C)C1(c3cc(C)c(NCC)cc3O2)c2ccccc2C(=O)N1/N=C/C=N/c1ccc(CCl)cc1 [RHg14]	large fluorescence and UV-Vis absorption enhancement	good selectivity	–
